The structures appear in SMILES notation. Like-named read-outs stand apart in the source and are kept apart here.

The test system of experiment [1] is HIF-1α–NanoLuc HCT116 cells. The experiment is described as follows: Viability (Luc): CellTiter-Glo counter screen in HIF-1α–NanoLuc cells. The experiment is classed as cell-based, human. As to conditions: Table S7, 1% O2, 18 h. (In general: ATP-based viability assays read luminescence as a measure of living cells.)
Experiment [2] deals with hypoxia response element-beta-lactamase (HRE–bla). The experiment is described as follows: HRE-bla reporter gene assay in ME-180 cells. As to conditions: for Emax / IC50: Homo sapiens; for Emax: ME-180; for IC50: read-out: HRE-bla IC50. Format: cell-based, human. A general note: A reporter such as luciferase makes a cellular process visible.
Procedure: (§1) Cell culture of HRE–bla ME-180 cells (Cat. No. K1644, Life Technologies) and HRE–bla assay were conducted according to a reported protocol [6]. […] The fluorescence signals (460/25 nm and 530/20 nm) of CCF4 and luminescence signals of CellTiter-Glo were acquired on an Envision and a ViewLux plate readers (Perkin Elmer), respectively.
Experiment [3] concerns co-cultures of human aortic endothelial cells and human mesenchymal stem cells. The experiment is described as follows: In vitro angiogenesis co-culture assay (tube formation). Format: cell-based. As to conditions: three-day exposure; for IC50 / Emax: Homo sapiens, 72 h, Table 1; for IC50: tube formation; for Emax: percentage of inhibition compared to DMSO controls, read-out: Angiogenesis Efficacy (converted); for Angiogenesis inhibition, result in words: co-culture assay.
Procedure: Cells were seeded in a 96-well clear bottom plate (Corning) for five hours and exposed to test compounds for three days at 37°C, 5% CO2.

The subject of another experiment is HRE–bla ME-180 cells. The experiment is described as follows: Viability (BLA): CellTiter-Glo counter screen in HRE–bla cells. The experiment is classed as cell-based, human. As to conditions: for IC50: Homo sapiens, ME-180, Table S7, confirmatory screen, 1% O2, 18 h; for Viability (BLA) confirmatory IC50: Table S7, 1% O2, 18 h.
In another experiment the test system is HCT116 cells. The experiment is described as follows: Cancer cell proliferation assay, HCT116. As to conditions: Table 1, 72 h; for IC50: Homo sapiens, HCT-116, read-out: 72-hr Viability HCT116 IC50. Format: cell-based, human.
The next experiment deals with HIF-1α–NanoLuc. Description: HIF-1α–NanoLuc reporter gene assay (qHTS primary and confirmatory screens). Format: cell-based, human. As to conditions: Homo sapiens.
The next experiment has as its system ME-180 cells. The experiment is described as follows: Cancer cell proliferation assay, ME-180. As to conditions: Homo sapiens, ME-180; Table 1; 72 h; read-out: 72-hr Viability ME-180 IC50. Format: cell-based.
Another experiment concerns hypoxia signaling genes. Description: Real-time qPCR of human hypoxia signaling gene panel in ME-180 cells. As to conditions: 1% O2, 18 h, at IC50 concentration of HIF-1α–NanoLuc assay. (In general: Real-time PCR tracks product formation cycle by cycle.)
The mark [4] stands for this setting: Table 1, percentage of inhibition compared to DMSO controls, read-out: HRE-bla Efficacy (converted).
The mark [5] stands for this setting: Table S7, confirmatory screen, read-out: HRE–bla confirmatory Efficacy.
Setting [6] is: Table 1, ME-180 cells, 1% O2, 18 h.
The mark [7] stands for this setting: HCT-116, Table 1, HCT116 reporter cells, hypoxia 1% O2, 18 h, confirmatory, read-out: HIF-1α-NanoLuc IC50.
[8] abbreviates: Table 1, percentage of inhibition compared to DMSO controls, read-out: HIF-1α-NanoLuc Efficacy (converted).
The mark [9] stands for this setting: Table S2, primary screen, read-out: Pathway inhibitors (primary screen) HIF-1α–NanoLuc Activity Efficacy.
[10] abbreviates: Table S2, primary screen, read-out: Pathway inhibitors (primary screen) HIF-1α–NanoLuc Activity IC50.
Where [11] appears, read: Table S2, validation, read-out: Pathway inhibitors (validation) HIF-1α–NanoLuc Activity Efficacy.
Setting [12] is: Table S7, confirmatory screen, read-out: HIF-1α–NanoLuc confirmatory Efficacy.
[13] abbreviates: Table S7, primary screen, read-out: HIF-1α–NanoLuc primary Efficacy.

Procedure for HRE–bla ME-180 cells: as §1

What is called IC50 is the midpoint of a concentration-inhibition curve. In the case of `O=C1c2c(O)ccc(O)c2C(=O)c2c(NCCNCCO)ccc(NCCNCCO)c21` [Mitoxantrone], in experiment [1], the “Viability (Luc) confirmatory IC50” value is recorded as “Inactive”. Moreover, the Emax is 99% in experiment [2] (setting [4]); 99 ± 10% in experiment [2] (setting [5]); 101% in experiment [3]; 110% in the experiment with HIF-1α–NanoLuc (setting [8]); 80% in the experiment on HIF-1α–NanoLuc (Table S1, primary screen, read-out: Efficacy (primary screen, HIF-1α–NanoLuc assay)); 80% in the experiment with HIF-1α–NanoLuc (setting [9]). Also, the Emax in the experiment with HIF-1α–NanoLuc (setting [11]) is 110 ± 5%; in the experiment with HIF-1α–NanoLuc (setting [12]) it was 110 ± 5%; with HIF-1α–NanoLuc (setting [13]), 80%. The IC50 in experiment [2] (setting [6]) was 860 ± 520 nM; in experiment [3], 4 ± 3 nM; in the experiment with HRE–bla ME-180 cells, 13400 ± 4400 nM; in the experiment on HCT116 cells it was 11100 ± 4790 nM; in the experiment on HIF-1α–NanoLuc (setting [7]), 7650 ± 2130 nM; in the experiment on HIF-1α–NanoLuc (Table S1, primary screen, hypoxia 1% O2, 18 h, read-out: IC50 (primary screen, HIF-1α–NanoLuc assay)), 2380 nM. Further, the values for the IC50 in the experiment on HIF-1α–NanoLuc (setting [10]) and with ME-180 cells were 2370 nM and 110 ± 30 nM, respectively.
In the case of `COc1c(C)c2c(c(O)c1C/C=C(\C)CCC(=O)OCCN1CCOCC1)C(=O)OC2` [Mycophenolate mofetil], the “Viability (Luc) confirmatory IC50” value in experiment [1] was “Inactive”. The Emax in experiment [2] (setting [4]) was 58%; in experiment [2] (setting [5]) it was 58 ± 4%; in experiment [3], 93%; in the experiment with HIF-1α–NanoLuc (setting [8]), 59%; in the experiment on HIF-1α–NanoLuc (setting [12]), 59 ± 5%; in the experiment with HIF-1α–NanoLuc (setting [13]), 61%. The IC50 is 210 ± 50 nM in experiment [2] (setting [6]); 110 ± 60 nM in experiment [3]; 530 nM with HRE–bla ME-180 cells; 1580 ± 450 nM in the experiment on HIF-1α–NanoLuc (setting [7]); 330 nM in the experiment with HIF-1α–NanoLuc (Table S7, primary screen, read-out: HIF-1α–NanoLuc primary IC50); 1820 ± 740 nM with ME-180 cells. Besides, in experiment [3], the “Angiogenesis inhibition, result in words” value is recorded as “submicromolar concentrations”. Further, the “72-hr Viability HCT116 IC50” value with HCT116 cells was “Inactive”.
As to `Oc1cccc(-c2nc(N3CCOCC3)c3oc4ncccc4c3n2)c1` [PI-103], the “Viability (Luc) confirmatory IC50” value in experiment [1] is on record as “Inactive”. Moreover, the Emax in experiment [2] (setting [4]) was 62%; in experiment [2] (setting [5]) it was 62 ± 3%; in experiment [3], 80%; with HIF-1α–NanoLuc (setting [8]), 57%; in the experiment with HIF-1α–NanoLuc (setting [11]), 80 ± 3%; with HIF-1α–NanoLuc (setting [12]) it was 57 ± 10%. Besides, the IC50 in experiment [2] (setting [6]) is 150 ± 20 nM; in experiment [3] it was 320 ± 90 nM; with HRE–bla ME-180 cells, 770 ± 250 nM; in the experiment with HIF-1α–NanoLuc (setting [7]) it was 920 ± 60 nM; with HIF-1α–NanoLuc (Table S2, validation, read-out: Pathway inhibitors (validation) HIF-1α–NanoLuc Activity IC50), 2770 ± 40 nM; in the experiment on ME-180 cells, 370 ± 20 nM. In addition, the “Effect on expression of hypoxia-induced genes, in words” value with hypoxia signaling genes is “decreased the expression levels of all hypoxia-induced genes tested”. Moreover, the “Angiogenesis inhibition, result in words” value in experiment [3] is listed as “submicromolar concentrations”. Further, in the experiment on HCT116 cells, the “72-hr Viability HCT116 IC50” value was “Inactive”.
As to `Cn1cnc2c(F)c(Nc3ccc(Br)cc3Cl)c(C(=O)NOCCO)cc21` [Selumetinib], in experiment [1], the “Viability (Luc) confirmatory IC50” value is “Inactive”. Besides, in experiment [2] (setting [6]), the “HRE-bla IC50” value is “Inactive”. The IC50 in experiment [3] amounted to 10 nM; in the experiment on HCT116 cells, 22800 ± 3890 nM; in the experiment with HIF-1α–NanoLuc (setting [7]) it was 1490 ± 1300 nM; in the experiment with HIF-1α–NanoLuc (setting [10]) it was 40 nM; in the experiment with ME-180 cells, 270 ± 60 nM. Besides, the Emax in experiment [3] was 92%; in the experiment with HIF-1α–NanoLuc (setting [8]), 48%; in the experiment with HIF-1α–NanoLuc (setting [9]) it was 62%; in the experiment with HIF-1α–NanoLuc (setting [11]), 48 ± 10%; in the experiment on HIF-1α–NanoLuc (setting [12]), 48 ± 10%; in the experiment with HIF-1α–NanoLuc (setting [13]), 62%. Besides, in the experiment with HRE–bla ME-180 cells, the “Viability (BLA) confirmatory IC50” value is given as “Inactive”.
In the case of `CC[C@@]1(O)C(=O)OCc2c1cc1n(c2=O)Cc2cc3c(CN(C)C)c(O)ccc3nc2-1` [Topotecan], the Emax in experiment [2] (setting [4]) is 131%; in experiment [2] (setting [5]), 131 ± 9%; in experiment [3], 80%. Besides, the IC50 in experiment [2] (setting [6]) was determined as 620 ± 380 nM; in experiment [3], 10 nM; with HCT116 cells it was 4300 ± 1200 nM; in the experiment with ME-180 cells, 100 ± 10 nM. For the same compound, in the experiment with HRE–bla ME-180 cells, the “Viability (BLA) confirmatory IC50” value is reported as “Inactive”.
`CC(=O)Nc1cccc(-n2c(=O)n(C3CC3)c(=O)c3c(Nc4ccc(I)cc4F)n(C)c(=O)c(C)c32)c1` [Trametinib]: the “Viability (Luc) confirmatory IC50” value in experiment [1] is “Inactive”. Besides, the Emax was 53% in experiment [2] (setting [4]); 53 ± 9% in experiment [2] (setting [5]); 89% in experiment [3]; 69% in the experiment with HIF-1α–NanoLuc (setting [8]); 69 ± 5% in the experiment with HIF-1α–NanoLuc (setting [11]); 69 ± 5% in the experiment with HIF-1α–NanoLuc (setting [12]). Also, the IC50 in experiment [2] (setting [6]) turned out to be 20500 ± 8110 nM; in experiment [3], 0.05 ± 0.05 nM; with HCT116 cells, 640 ± 110 nM; in the experiment on HIF-1α–NanoLuc (setting [7]), 2980 ± 4640 nM; in the experiment on ME-180 cells it was 60 ± 20 nM. For the same compound, the “Effect on expression of hypoxia-induced genes, in words” value in the experiment on hypoxia signaling genes is “decreased expression levels of HIF1A and many hypoxia responsive genes”. In experiment [3], the “Angiogenesis inhibition, result in words” value is recorded as “picomolar IC50 value”. The “Viability (BLA) confirmatory IC50” value in the experiment with HRE–bla ME-180 cells is recorded as “Inactive”.

The values above are taken from publication PMC4884984, “Identification of approved and investigational drugs that inhibit hypoxia-inducible factor-1 signaling” (Oncotarget, 2016).
